Results taken from patent US5011846A, “Medicament compositions derived from quinolizine and quinolizinone and methods of use thereof” (Merrell Dow Pharmaceuticals Inc., priority 1988, dated 1991).
Structures can show the parent of a compound that is named as a salt.

Assays:
acute migraine attack = details: cited from earlier work
[1] = tested on: nausea and vomiting induced by cancer chemotherapeutic agents; details: animal experimental model (Miner et al.; Costall et al.); cited from earlier work
5-HT M-receptor = details: literature values (Fozard et al.), 5-HT receptor antagonism; cited from earlier work
[2] = tested on: Von Bezold-Jarisch Reflex induced by 5-HT; test: Von Bezold-Jarisch Reflex induced by 5-HT injected intravenously into the rat; type: in vivo
From the text: The activity of these compounds against 5-HT can be assessed in vivo by measurement of the effect of the compound on the Von Bezold-Jarisch Reflex induced by 5-HT injected intravenously into the rat (see Paintal A.S., Physiol. Rev. 53, 159-227, 1973; J. R. Fozard, Naunyn-Schmiedeberg's Arch. Pharmacol., 326, 1984, 36-44). The transient cardiac slowing arises from an increased afferent vagus activity arising from stimulation by 5-HT of sensory afferent fibers in and around the heart.

[3] = 0.01-0.1 mg/kg given intravenously

SMILES	prevention of nausea and vomiting induced by cancer chemotherapeutic agents [1]	pA2 (5-HT M-receptor)	also measured
CN1[C@@H]2CC[C@H]1C[C@@H](OC(=O)c1cc(Cl)cc(Cl)c1)C2 [3,5-dichlorobenzoyltropine]	highly effective		efficacy in the acute migraine attack (acute migraine attack; double-blind clinical trial (Loisy et al.)): proved an effective treatment
CN1[C@@H]2CC[C@H]1C[C@@H](OC(=O)c1c[nH]c3ccccc13)C2 [(3α-tropanyl)-1H-indole-3-carboxylic acid ester]	highly effective		
CN1[C@@H]2CC[C@H]1C[C@@H](OC(=O)c1ccccc1)C2 [benzoyltropine]		7.2	
Cc1cc(C)cc(C(=O)OC2CC3CC4CC(C2)N3CC4=O)c1 (stereo not drawn) [endo-8-(3,5-dimethylbenzoyl-oxy)hexahydro-2,6-methano-2H-quinolizin-3(4H)-one]			suppression of Von Bezold-Jarisch Reflex response [2, 3]: suppressed the response dose-dependently; suppression of Von Bezold-Jarisch Reflex response ([2]; 0.25-1 mg/kg given orally): suppressed the response dose-dependently
O=C(OC1CC2CC3CC(C1)N2CC3=O)c1c[nH]c2ccccc12 (stereo not drawn) [endo-hexahydro-8-(3-indolylcarbonyloxy)-2,6-methano-2H-quinolizin-3(4H)-one hydrochloride]			suppression of Von Bezold-Jarisch Reflex response [2, 3]: suppressed the response dose-dependently; suppression of Von Bezold-Jarisch Reflex response ([2]; 0.25-1 mg/kg given orally): suppressed the response dose-dependently
CCN(CC)CCNC(=O)c1cc(Cl)c(N)cc1OC [metoclopramide]	highly effective	7.2	relief of an acute migraine attack (acute migraine attack; slow intravenous injection, 10 mg (Hughes 1977)): immediate relief of an acute migraine attack
COC(=O)[C@H]1[C@@H](OC(=O)c2ccccc2)C[C@@H]2CC[C@H]1N2 [nor (-) cocaine]		7.7	
CN1[C@@H]2CC[C@H]1C[C@H](OC(=O)c1ccccc1)C2 [pseudotropyl benzoate]		7.0	
